Where a name gives a salt, the structure may show the parent alone. Read-outs that look alike come from different tables or passages of the source.
Tests used:
Experiment in all cases: In vitro antibacterial activity (MIC)
Type in all cases: cell-based
C. freundii 8ASM = conditions: Citrobacter freundii, 8ASM, C. freundii 8ASM; read-out: MIC
How it was run: (§1)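 Broth microdilution in Mueller-Hinton broth, drug range 128 to 0.008 μg/ml; each well inoculated with 1.5 μl of a 10^-2 dilution of overnight culture. Sealed trays incubated overnight at 37° C. MIC is the lowest concentration showing no visible growth.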

C. freundii CDC6 = conditions: Citrobacter freundii, CDC6, C. freundii CDC6; read-out: MIC
How it was run: as §1

E. aerogenes 503-478 = conditions: Klebsiella aerogenes, 503478, E. aerogenes 503-478; read-out: MIC
How it was run: as §1

E. aerogenes 83 = conditions: Klebsiella aerogenes, 83, E. aerogenes 83; read-out: MIC
How it was run: as §1

E. aerogenes 8 = conditions: Klebsiella aerogenes; E. aerogenes 8; read-out: MIC
How it was run: as §1

E. cloacae 24 = conditions: Enterobacter cloacae, 24, E. cloacae 24; read-out: MIC
How it was run: as §1

E. cloacae 6951 = conditions: Enterobacter cloacae, 6951, E. cloacae 6951; read-out: MIC
How it was run: as §1

E. cloacae 9570A = conditions: Enterobacter cloacae
How it was run: as §1

E. coli 387-1 = conditions: Escherichia coli, 3871, E. coli 387-1; read-out: MIC
How it was run: as §1

E. coli 4 = conditions: Escherichia coli, 4, E. coli 4; read-out: MIC
How it was run: as §1

E. coli 503-455 = system: E. coli 503-455
How it was run: as §1

E. coli R-563 = conditions: Escherichia coli, R563, E. coli R-563; read-out: MIC
How it was run: as §1

K. pneumoniae 35 = conditions: Klebsiella pneumoniae; K. pneumoniae 35; read-out: MIC
How it was run: as §1

K. pneumoniae 4964 = conditions: Klebsiella pneumoniae, 4964, K. pneumoniae 4964; read-out: MIC
How it was run: as §1

K. pneumoniae 503-964 = conditions: Klebsiella pneumoniae, 503964; K. pneumoniae 503-964; read-out: MIC
How it was run: as §1

K. pneumoniae 5096 = conditions: Klebsiella pneumoniae; K. pneumoniae 5096; read-out: MIC
How it was run: as §1

K. pneumoniae 8357 = system: K. pneumoniae 8357
How it was run: as §1

K. pneumoniae A = conditions: Klebsiella pneumoniae, K. pneumoniae A; read-out: MIC
How it was run: as §1

K. pneumoniae HE7 = conditions: Klebsiella pneumoniae; K. pneumoniae HE7; read-out: MIC
How it was run: as §1

P. aeruginosa 503-56 = conditions: Pseudomonas aeruginosa, 50356, P. aeruginosa 503-56; read-out: MIC
How it was run: as §1

P. aeruginosa 8710 = conditions: Pseudomonas aeruginosa; P. aeruginosa 8710; read-out: MIC
How it was run: as §1

P. aeruginosa POW 151 = conditions: Pseudomonas aeruginosa, POW151
How it was run: as §1

P. aeruginosa Stone 130 = conditions: Pseudomonas aeruginosa, STONE130, read-out: MIC
How it was run: as §1

P. mirabilis 190 = conditions: Proteus mirabilis, 190, P. mirabilis 190; read-out: MIC
How it was run: as §1

P. mirabilis 503-1136 = conditions: Proteus mirabilis, 5031136, P. mirabilis 503-1136; read-out: MIC
How it was run: as §1

P. mirabilis 620A = conditions: Proteus mirabilis, 620A, P. mirabilis 620A; read-out: MIC
How it was run: as §1

P. rettgeri ATCC 9250 = conditions: Providencia rettgeri, ATCC9250, P. rettgeri ATCC 9250; read-out: MIC
How it was run: as §1

P. vulgaris 101 = conditions: Proteus vulgaris, 101, P. vulgaris 101; read-out: MIC
How it was run: as §1

P. vulgaris ATCC 6380 = conditions: Proteus vulgaris, ATCC6380, P. vulgaris ATCC 6380; read-out: MIC
How it was run: as §1

S. aureus 1059B = conditions: Staphylococcus aureus, read-out: MIC
How it was run: as §1

S. aureus Giorgio = conditions: Staphylococcus aureus, S. aureus Giorgio; read-out: MIC
How it was run: as §1

S. aureus Smith = conditions: Staphylococcus aureus, S. aureus Smith; read-out: MIC
How it was run: as §1

S. faecalis C1 = conditions: Enterococcus faecalis; S. faecalis C1; read-out: MIC
How it was run: as §1

S. marcescens 5805 = conditions: Serratia marcescens, 5805, S. marcescens 5805; read-out: MIC
How it was run: as §1

S. marcescens S147 = conditions: Serratia marcescens; S. marcescens S147; read-out: MIC
How it was run: as §1

S. marcescens S1 = conditions: Serratia marcescens, S1, S. marcescens S1; read-out: MIC
How it was run: as §1

S. marcescens S2 = conditions: Serratia marcescens; S. marcescens S2; read-out: MIC
How it was run: as §1

S. marcescens S3 = conditions: Serratia marcescens; S. marcescens S3; read-out: MIC
How it was run: as §1

S. marcescens S4 = conditions: Serratia marcescens, S4, S. marcescens S4; read-out: MIC
How it was run: as §1

S. marcescens SM = conditions: Serratia marcescens, read-out: MIC
How it was run: as §1

S. pneumoniae 6301 = conditions: Streptococcus pneumoniae, 6301, S. pneumoniae 6301; read-out: MIC
How it was run: as §1

S. pneumoniae SC = conditions: Streptococcus pneumoniae, read-out: MIC
How it was run: as §1

S. pyogenes 4 = conditions: Streptococcus pyogenes, 4, S. pyogenes 4; read-out: MIC
How it was run: as §1

S. pyogenes 503-782 = conditions: Streptococcus pyogenes, 503782; S. pyogenes 503-782; read-out: MIC
How it was run: as §1

S. typhi P58A = conditions: Salmonella enterica, TYPHI
How it was run: as §1

## CC1(C)S[C@@H]2[C@H](N=CN3CCC(Cn4ccnc4CN)CC3)C(=O)N2[C@H]1C(=O)O [J, [2S-(2alpha,5alpha,6beta)]-6-[[[4-[[2-(aminomethyl)-1H-imidazol-1-yl]methyl]-1-piperidinyl]methylene]amino]-3,3-dimethyl-7-oxo-4-thia-1-azabicyclo[3.2.0]heptane-2-carboxylic acid hydrochloride]
C. freundii 8ASM
  MIC: 0.125 µg/mL
C. freundii CDC6
  MIC: 64 µg/mL
E. aerogenes 503-478
  MIC: 8 µg/mL
E. aerogenes 83
  MIC: 1 µg/mL
E. aerogenes 8
  MIC: 0.5 µg/mL
E. cloacae 24
  MIC: 0.5 µg/mL
E. cloacae 6951
  MIC: 16 µg/mL
E. cloacae 9570A; read-out: MIC
  MIC: 0.5 µg/mL
E. coli 387-1
  MIC: 0.125 µg/mL
E. coli 4
  MIC: 0.062 µg/mL
E. coli 503-455; Escherichia coli, 503455, E. coli 503-455, read-out: MIC
  MIC: 1 µg/mL
E. coli R-563
  MIC: 0.125 µg/mL
K. pneumoniae 35
  MIC: 0.5 µg/mL
K. pneumoniae 4964
  MIC: 0.5 µg/mL
K. pneumoniae 503-964
  MIC: 0.25 µg/mL
K. pneumoniae 5096
  MIC: 128 µg/mL
K. pneumoniae 8357; Klebsiella pneumoniae, 8357, K. pneumoniae 8357, read-out: MIC
  MIC: 4 µg/mL
K. pneumoniae A
  MIC: 0.062 µg/mL
K. pneumoniae HE7
  MIC: > 128 µg/mL
P. aeruginosa 503-56
  MIC: 64 µg/mL
P. aeruginosa 8710
  MIC: > 128 µg/mL
P. aeruginosa POW 151
  MIC: > 128 µg/mL
P. aeruginosa Stone 130
  MIC: > 128 µg/mL
P. mirabilis 190
  MIC: 0.5 µg/mL
P. mirabilis 503-1136
  MIC: 8 µg/mL
P. mirabilis 620A
  MIC: > 128 µg/mL
P. rettgeri ATCC 9250
  MIC: 16 µg/mL
P. vulgaris 101
  MIC: 8 µg/mL
P. vulgaris ATCC 6380
  MIC: 0.125 µg/mL
S. aureus 1059B
  MIC: > 128 µg/mL
S. aureus Giorgio
  MIC: 8 µg/mL
S. aureus Smith
  MIC: 8 µg/mL
S. faecalis C1
  MIC: 128 µg/mL
S. marcescens 5805
  MIC: 1 µg/mL
S. marcescens S147
  MIC: 0.25 µg/mL
S. marcescens S1
  MIC: 0.5 µg/mL
S. marcescens S2
  MIC: 0.25 µg/mL
S. marcescens S3
  MIC: 0.25 µg/mL
S. marcescens S4
  MIC: 1 µg/mL
S. marcescens SM
  MIC: 0.5 µg/mL
S. pneumoniae 6301
  MIC: 1 µg/mL
S. pneumoniae SC
  MIC: 4 µg/mL
S. pyogenes 4
  MIC: 4 µg/mL
S. pyogenes 503-782
  MIC: 128 µg/mL
S. typhi P58A
  MIC: 8 µg/mL

## CC1(C)S[C@@H]2[C@H](N=CN3CCC(CCCn4ccnc4[N+](=O)[O-])CC3)C(=O)N2[C@H]1C(=O)O [K, [2S-(2alpha,5alpha,6beta)]-6-[[[4-[3-(2-nitro-1H-imidazol-1-yl)propyl]piperidinyl]methylene]amino]-3,3-dimethyl-7-oxo-4-thia-1-azabicyclo[3.2.0]heptane-2-carboxylic acid hydrochloride 0.66 molar hydrate]
C. freundii 8ASM
  MIC: 0.25 µg/mL
C. freundii CDC6
  MIC: 0.5 µg/mL
E. aerogenes 503-478
  MIC: 4 µg/mL
E. aerogenes 83
  MIC: 8 µg/mL
E. aerogenes 8
  MIC: 8 µg/mL
E. cloacae 24
  MIC: 1 µg/mL
E. cloacae 6951
  MIC: 16 µg/mL
E. cloacae 9570A; 9570A
  MIC: 1 µg/mL
E. coli 387-1
  MIC: 0.5 µg/mL
E. coli 4
  MIC: 0.5 µg/mL
E. coli 503-455; Escherichia coli, 503455
  MIC: 4 µg/mL
E. coli R-563
  MIC: 0.5 µg/mL
K. pneumoniae 35
  MIC: 0.5 µg/mL
K. pneumoniae 4964
  MIC: 0.5 µg/mL
K. pneumoniae 503-964
  MIC: 0.5 µg/mL
K. pneumoniae 5096
  MIC: 16 µg/mL
K. pneumoniae 8357; Klebsiella pneumoniae, 8357
  MIC: 2 µg/mL
K. pneumoniae A
  MIC: 0.25 µg/mL
K. pneumoniae HE7
  MIC: 64 µg/mL
P. aeruginosa 503-56
  MIC: > 128 µg/mL
P. aeruginosa 8710
  MIC: > 128 µg/mL
P. aeruginosa POW 151
  MIC: > 128 µg/mL
P. aeruginosa Stone 130
  MIC: > 128 µg/mL
P. mirabilis 190
  MIC: 0.5 µg/mL
P. mirabilis 503-1136
  MIC: 8 µg/mL
P. mirabilis 620A
  MIC: 16 µg/mL
P. rettgeri ATCC 9250
  MIC: 2 µg/mL
P. vulgaris 101
  MIC: 16 µg/mL
P. vulgaris ATCC 6380
  MIC: 0.5 µg/mL
S. aureus 1059B
  MIC: 128 µg/mL
S. aureus Giorgio
  MIC: 8 µg/mL
S. aureus Smith
  MIC: 8 µg/mL
S. faecalis C1
  MIC: 128 µg/mL
S. marcescens 5805
  MIC: 8 µg/mL
S. marcescens S147
  MIC: 2 µg/mL
S. marcescens S1
  MIC: 2 µg/mL
S. marcescens S2
  MIC: 2 µg/mL
S. marcescens S3
  MIC: 4 µg/mL
S. marcescens S4
  MIC: 8 µg/mL
S. marcescens SM
  MIC: 2 µg/mL
S. pneumoniae 6301
  MIC: 1 µg/mL
S. pneumoniae SC
  MIC: 1 µg/mL
S. pyogenes 4
  MIC: 0.5 µg/mL
S. pyogenes 503-782
  MIC: 128 µg/mL
S. typhi P58A
  MIC: 0.5 µg/mL

From patent US4605744A, “Imidazole derivatives” (Hoffmann-La Roche Inc., priority 1985, dated 1986)
